Experiments:
Hepatitis C virus = assay: Antiviral activity against Hepatitis C virus genotype 1b infected in human HuH7 cells after 3 days by luciferase reporter gene assay; format: functional, organism-based, Hepacivirus hominis; conditions: Huh-7, 72 h
[1] = Inhibition of HCV NS5B polymerase after 4 hrs by on-bead solid phase homogeneous assay; design: species or system Hepacivirus hominis

Compound	EC50 (Hepatitis C virus)	IC50 [1]
CCN(c1cc2oc(-c3ccc(F)cc3)c(-c3ncc[nH]3)c2c(F)c1-c1cc(C(=O)NC2(c3ncccn3)CC2)c(OC)cc1C)S(C)(=O)=O	9 nM	
CCNc1cc2oc(-c3ccc(F)cc3)c(-c3ncc[nH]3)c2c(F)c1-c1cc(C(=O)NC2(c3ncccn3)CC2)c(OC)cc1C	7.2 nM	
COc1cc(C)c(-c2ccc3oc(-c4ccc(F)cc4)c(-c4ncc[nH]4)c3c2F)cc1C(=O)NC1(c2ncccn2)CC1	30 nM	30 nM
